Experimental data published in patent US9402821B2, “Methods and pharmaceutical compositions for treatment of cystic fibrosis” (INSERM (Institut National de la sante et de la Recherche …, priority 2012, dated 2016).

What was measured:
[1] = tested on: NF-κB transcriptional activity; assay: NF-κB firefly luciferase reporter assay, TNFα-stimulated cells; assay type: cell-based; settings: TNFα 10 ng/ml; BEAS-2B and HeLa cells with wt or deltaF508-CFTR (FIGS. 1A, B)
Experimental: All cells were transiently transfected by NF-κB firefly luciferase reporter and renilla luciferase reference. A. HeLa control cells (Ctr) were pre-treated with diluent (0.5%) or different doses of sulindac for 1 h and stimulated for 1 h with 10 ng/ml TNFα. After removal of TNFα, cells were incubated for 4 h with sulindac. Luciferase activity was analysed in protein extract. The NF-κB transcriptional activity in cells treated with sulindac+TNFα was expressed in percent of diluent+TNFα. B. Hela cells Wt, DF508 and Ctr were pre-treated with diluent (0.5%), ibuprofen (500 μM) or sulindac (500 μM) for 1 h and stimulated for 1 h with […] TNFα. After removal of TNFα, cells were incubated for 4 h with pharmacological treatment. The NF-κB transcriptional activity in cells treated with ibuprofen+TNFα and sulindac+TNFα was expressed in percent of diluent+TNFα. Results of at least three independent experiments, means±SEM. Unilateral paired t test: * p<0.02
All cells were pre-treated with diluent (0.5%), sulindac ([…]) or sulindac sulfone (250 μM) for 1 h and stimulated for 1 h with 10 ng/ml TNFα. […]
Plasmid Constructs and Transient Transfection To assay the transcriptional activity of NF-κB, pNF-κBLuc, a luciferase reporter plasmid containing five sequential NF-κB binding sites upstream of a minimum promoter element, NF-κB-Luc (Stratagene), was used. Transcriptional activity of the IL-8 promoter was evaluated with reporter constructs consisting of the IL-8 promoter (−133 bp from the transcription start site) fused to the Luciferase gene, kindly provided by Naofumi Mukaida. […]
Cells were lysed with the Passive Lysis Buffer (Promega), and luciferase activity in the cellular extracts was determined by the Dual Luciferase Assay System (Promega) using a luminometer (Tristar; Berthold). The results were normalized to those obtained with the Renilla luciferase reference plasmid used to control the transfection efficiency, and the values were expressed as luminescence intensity (Luciferase/Renilla). […]
The transcriptional activity of NF-κB and IL-8 promoter was measured as described before. […]

[2] = tested on: PPAR transcriptional activity; assay: PPAR firefly luciferase reporter assay (3 PPRE motifs) in HeLa cells; assay type: cell-based; settings: sulindac 100 μM, 24 h
Experimental: HeLa control cells were transiently transfected by PPAR firefly luciferase reporter (3 PPRE motifs) and renilla luciferase reference. Cells were treated with diluent (0.5%), ibuprofen (500 μM) or sulindac (100 μM) for 24 h. The PPAR transcriptional activity in cells treated with ibuprofen and sulindac was expressed in percent of diluents. Results of three independent experiments, means±SEM. Unilateral paired t test: ** p<0.01.
To assay the transcriptional activity of AP-1, pAP1Luc, a luciferase reporter plasmid containing five sequential AP-1 binding sites upstream of a minimum promoter element, was used. Transcriptional activity of PPAR was evaluated with reporter constructs with three sequential PPRE consensus sequences, binding PPAR factors. Transient transfection were realized as described before. To normalize transfection efficiency, a renilla luciferase reporter construct (pRL-TK, Promega) was co-transfected with each of the firefly luciferase constructs. To induced AP-1 activity, cells were exposed to TNFα (10 ng/mL) for 1 hour. Cells were pre- and treated with sulindac, ibuprofen or vehicule control one hour before and four hours after this induction. For PPAR activity, cells were treated with pharmacological drugs for 24 hours.
Luciferase assay was realized as described before.

For `CC1=C(CC(=O)O)c2cc(F)ccc2/C1=C\c1ccc([S+](C)[O-])cc1` (centres unmarked) [sulindac, (Z)-5-fluoro-2-methyl-1-[p-(methylsulfinyl)benzylidene]-indene-3-acetic acid], the “transcriptional activity of NF-κB” value [1] was “inhibits transcriptional activity of NF-κB” and the PPAR transcriptional activity [2] was “increase in the transcriptional activity of PPAR”.
